For 19 compounds, melting point and Ki results are on record in US6969730B2, “Amines as histamine-3 receptor ligands and their therapeutic applications” (Abbott Laboratories, priority 2001, dated 2005).

Usually melting point stands for the temperature of the solid-liquid transition. As a reminder, the Ki is a dissociation constant, usually derived from enzyme kinetics or from competition with a known ligand.

Where a name gives a salt, the structure may show the parent alone.

Tested on in the first data set: not given
Experiment: not given
Conditions: not given
In the case of `N#Cc1ccc(-c2ccc3oc(CCN)cc3c2)cc1` [Example 162, 4-[2-(2-aminoethyl)-1-benzofuran-5-yl]benzonitrile], the melting point lay within 118 to 120 °C. The same measure, in the same setting: the figure for `N#Cc1ccc(-c2ccc3oc(CCN4CCC[C@H]4CF)cc3c2)cc1` (as salt: tartrate) [Example 164, 4-(2-{2-[(2S)-2-(fluoromethyl)-1-pyrrolidinyl]ethyl}-1-benzofuran-5-yl)benzonitrile] is 156.3 °C; for `CC[C@@H]1CCCN1CCc1cc2cc(-c3ccc(C#N)cc3)ccc2o1` (as salt: tartrate) [Example 163, 4-(2-{2-[(2R)-2-ethyl-1-pyrrolidinyl]ethyl}-1-benzofuran-5-yl)benzonitrile] it is 147 °C.

In the next data set the target is T1, histamine-3 receptors (H3 receptor) (Rattus norvegicus, UniProt Q9QYN8).
T1 construct: from tissue; host or cells: male Sprague-Dawley rat brain cortex membranes
T1 sequence (Q9QYN8 whole entry): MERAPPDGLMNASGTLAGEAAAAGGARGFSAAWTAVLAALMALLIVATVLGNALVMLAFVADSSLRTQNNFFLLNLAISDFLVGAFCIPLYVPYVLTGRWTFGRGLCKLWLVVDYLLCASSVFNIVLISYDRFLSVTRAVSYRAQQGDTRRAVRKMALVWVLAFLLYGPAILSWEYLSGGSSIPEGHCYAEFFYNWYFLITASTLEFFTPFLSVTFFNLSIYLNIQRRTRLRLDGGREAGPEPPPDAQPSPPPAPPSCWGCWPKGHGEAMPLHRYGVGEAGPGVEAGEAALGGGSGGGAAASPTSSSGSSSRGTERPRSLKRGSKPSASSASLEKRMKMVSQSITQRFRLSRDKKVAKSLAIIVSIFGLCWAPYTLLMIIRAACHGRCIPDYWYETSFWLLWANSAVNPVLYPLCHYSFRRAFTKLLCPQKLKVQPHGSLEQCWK
Kind of data set: (3H)-N-α-methylhistamine binding to rat cortical membranes (histamine-3 receptor ligands). The note with it: male Sprague-Dawley rat brain cortical membranes; (3H)-N-α-methylhistamine ~0.6 nM; 30 minutes at 25° C.; Cheng-Prusoff. The method, then:
Briefly, male Sprague-Dawley rat brain cortices were homogenized (1 g tissue/10 mL buffer) in 50 mM Tris-HCl/5 mM EDTA containing protease inhibitor cocktail (Calbiochem) using a polytron set at 20,500 rpm. Homogenates were centrifuged for 20 minutes at 40,000×g. The supernatant was decanted, and pellets were weighed. The pellet was resuspended by polytron homogenization in 40 mL 50 mM Tris-HCl/5 mM EDTA with protease inhibitors and centrifuged for 20 minutes at 40,000×g. […] Rat cortical membranes (12 mg wet weight/tube) were incubated with (^3H)-N-α-methylhistamine (˜0.6 nM) with or without H3 receptor antagonists in a total incubation volume of 0.5 mL of 50 mM Tris-HCl/5 mM EDTA (pH 7.7). Test compounds were dissolved in DSMO to provide a 20 mM solution, serially diluted and then added to the incubation mixture prior to initiating the incubation assay by addition of the membranes. Thioperamide (3 μM) was used to determine nonspecific binding. Binding incubations were conducted for 30 minutes at 25° C. and terminated by addition of 2 mL of ice cold 50 mM Tris-HCl (pH 7.7) and filtration through 0.3% polyethylenimine-soaked Unifilter plates (Packard). These filters were washed 4 additional times with 2 mL of ice-cold 50 mM Tris-HCl and dried for 1 hour. Radioactivity was determined using liquid scintillation counting techniques. Results were analyzed by Hill transformation and Ki values were determined using the Cheng-Prusoff equation.
Consider `N#Cc1ccc(-c2ccc3oc(CCN)cc3c2)cc1` [Example 162, 4-[2-(2-aminoethyl)-1-benzofuran-5-yl]benzonitrile], for which affinity was put at a Ki of 0.581 µM. Consider `CON=C(C)c1cccc(-c2ccc3oc(CCN4CCC[C@H]4C)cc3c2)c1` [Example 140, 1-[3-(2-{2-[(2R)-2-methyl-1-pyrrolidinyl]ethyl}-1-benzofuran-5-yl)phenyl]ethanone O-methyloxime], for which the Ki was found to be 0.021 µM.

On to `C[C@@H]1CCCN1CCc1cc2cc(-c3cccc(C=O)c3)ccc2o1` [Example 149, 3-(2-{2-[(2R)-2-methyl-1-pyrrolidinyl]ethyl}-1-benzofuran-5-yl)benzaldehyde], for which the affinity corresponds to a Ki of 0.0033 µM.

Turning to `C[C@@H]1CCCN1CCc1cc2cc(-c3cccc(F)c3)ccc2o1` [Example 122, (2R)-1-{2-[5-(3-fluorophenyl)-1-benzofuran-2-yl]ethyl}-2-methylpyrrolidine], the Ki was determined as 0.017 µM. Still for that read-out and setting: the figure for `C[C@@H]1CCCN1CCc1oc2ccc(-c3ccc(C#N)cc3)cc2c1I` [Example 157, 4-(3-iodo-2-{2-[(2R)-2-methyl-1-pyrrolidinyl]ethyl}-1-benzofuran-5-yl)benzonitrile] is 0.0084 µM; for `COC(=O)[C@@H]1CCCN1CCc1cc2cc(-c3ccc(C#N)cc3)ccc2o1` [Example 15, 4-(2-{2-[2-pyrrolidinemethyl carboxylate]ethyl}-1-benzofuran-5-yl)benzonitrile] it is no less than 1 µM; for `C[C@@H]1CCCN1CCc1oc2ccc(-c3ccc(C#N)cc3)cc2c1Br` [Example 101, 4-(3-bromo-2-{2-[(2R)-2-methylpyrrolidin-1-yl]ethyl}-1-benzofuran-5-yl)benzonitrile] it is 0.0034 µM. Same read-out and setting: under `CC(=NO)c1cccc(-c2ccc3oc(CCN4CCC[C@H]4C)cc3c2)c1` [Example 139, 1-[3-(2-{2-[(2R)-2-methyl-1-pyrrolidinyl]ethyl}-1-benzofuran-5-yl)phenyl]ethanone oxime] stands 0.0031 µM.

For the compound `Cc1ccccc1-c1ccc2oc(CCN3CCC[C@H]3C)cc2c1` [Example 115, (2R)-2-methyl-1-{2-[5-(2-methylphenyl)-1-benzofuran-2-yl]ethyl}pyrrolidine], affinity was put at a Ki of 0.033 µM.

`CCCc1nc(-c2ccc3oc(CCN4CCC[C@H]4C)cc3c2)no1` [Example 98, 3-(2-{2-[(2R)-2-methylpyrrolidin-1-yl]ethyl}-1-benzofuran-5-yl)-5-propyl-1,2,4-oxadiazole] showed a Ki of 0.0007 µM. Same read-out and setting: under `COC(=O)c1ccc(-c2ccc3oc(CCN4CCC[C@H]4C)cc3c2)cc1` [Example 118, methyl 4-(2-{2-[(2R)-2-methyl-1-pyrrolidinyl]ethyl}-1-benzofuran-5-yl)benzoate] stands 0.042 µM. On the same count and under the same terms, the figure for `C[C@@H]1CCCN1CCc1cc2cc(-c3ccc(C(F)(F)F)cc3)ccc2o1` [Example 127, (2R)-2-methyl-1-(2-{5-[4-(trifluoromethyl)phenyl]-1-benzofuran-2-yl}ethyl)pyrrolidine] is 0.12 µM. Still for that read-out and setting: the figure for `C[C@@H]1CCCN1CCc1oc2cc(Cl)c(-c3ccc(C#N)cc3)cc2c1Cl` [Example 156B, 4-(3,6-dichloro-2-{2-[(2R)-2-methyl-1-pyrrolidinyl]ethyl}-1-benzofuran-5-yl)benzonitrile] is 0.0097 µM. `Cc1cccc(-c2ccc3oc(CCN4CCC[C@H]4C)cc3c2)c1` [Example 116, (2R)-2-methyl-1-{2-[5-(3-methylphenyl)-1-benzofuran-2-yl]ethyl}pyrrolidine] showed a Ki of 0.03 µM. On the same count and under the same terms, under `C[C@@H]1CCCN1CCc1oc2ccc(-c3ccc(C#N)cc3)cc2c1Cl` [Example 156A, 4-(3-chloro-2-{2-[(2R)-2-methyl-1-pyrrolidinyl]ethyl}-1-benzofuran-5-yl)benzonitrile] stands 0.0037 µM. On the same count and under the same terms, the figure for `CC1CCCCN1CCc1cc2cc(-c3ccc(C#N)cc3)ccc2o1` (centres unmarked) [Example 6, 4-{2-[2-(2-methyl-1-piperidinyl)ethyl]-1-benzofuran-5-yl}benzonitrile] is 0.0449 µM; for `C[C@@H]1CCCN1CCc1cc2cc(-c3noc(Cc4cccs4)n3)ccc2o1` [Example 87, 3-(2-{2-[(2R)-2-methylpyrrolidin-1-yl]ethyl}-1-benzofuran-5-yl)-5-(thien-2-ylmethyl)-1,2,4-oxadiazole] it is 0.016 µM.
